Results: patent US20040110928A1, “Peptide conjugates for drug delivery” (priority 2000, published 2004)

Conditions: biotin tag reacted with fluorescently-labelled avidin
Description: In a separate experiment, two synthetic peptides were produced, and covalently attached to a biotin molecule. The sequences were:
The synthetic peptides were assessed for translocation by reacting the biotin tag with fluorescently-labelled avidin.

Substance | Translocation
Biotin-spacer-TPKKAKKPAAAAGASSAKSP-amide [SEQ ID NO. 11] | Translocation was observed
Biotin-spacer-TPKKASSPAAAAGAKKAKSP-amide [SEQ ID NO. 10] | no translocation was observed
